In ChEMBL document CHEMBL4177526, “Discovery and structure activity relationship of the first potent cryptosporidium FIKK kinase inhibitor” (Bioorg Med Chem, 2017):

Legend:
[1] = molecular target: Tyrosine-protein kinase CSK (Homo sapiens) (UniProt P41240); experiment: Inhibition of human CSK (1 to 450 residues) assessed as residual activity at 500 nM in presence of 33P-ATP by filter binding assay relative to control
[2] = molecular target: Calcium/calmodulin-dependent protein kinase kinase 2 (Homo sapiens) (UniProt Q96RR4); experiment: Inhibition of human CAMKKbeta (1 to 541 residues) assessed as residual activity at 500 nM in presence of 33P-ATP by filter binding assay relative to control
[3] = molecular target: Misshapen-like kinase 1 (Homo sapiens) (UniProt Q8N4C8); experiment: Inhibition of human MINK1 (1 to 320 residues) assessed as residual activity at 500 nM in presence of 33P-ATP by filter binding assay relative to control
[4] = test system: Ribosomal protein S6 kinase beta-1 (Homo sapiens), P23443 [T412E]; experiment: Inhibition of human S6K1 T412E mutant (1 to 421 residues) assessed as residual activity at 500 nM in presence of 33P-ATP by filter binding assay relative to control
[5] = test system: Serine/threonine-protein kinase OSR1 (Homo sapiens), O95747 [T185E]; experiment: Inhibition of human OSR1 T185E mutant (1 to 342 residues) assessed as residual activity at 500 nM in presence of 33P-ATP by scintillation counting method relative to control
[6] = molecular target: Protein kinase C zeta type (Homo sapiens) (UniProt Q05513); experiment: Inhibition of human PKCzeta (2 to 592 residues) assessed as residual activity at 500 nM in presence of 33P-ATP by filter binding assay relative to control
[7] = molecular target: Receptor tyrosine-protein kinase erbB-4 (Homo sapiens) (UniProt Q15303); experiment: Inhibition of human HER4 (706 to 991 residues) assessed as residual activity at 500 nM in presence of 33P-ATP by filter binding assay relative to control
[8] = molecular target: CDK9/cyclin T1 (Homo sapiens) (UniProt O60563+P50750); experiment: Inhibition of human CDK9 (1 to 372 residues)/cyclinT1 (1 to 726 residues) assessed as residual activity at 500 nM in presence of 33P-ATP by filter binding assay relative to control; assay type: protein-complex assay
[9] = molecular target: serine/threonine-protein kinase D1 (Homo sapiens) (UniProt Q15139); experiment: Inhibition of human PKD1 (2 to 912 residues) at 500 nM in presence of 33P-ATP by filter binding assay relative to control
[10] = test system: TGF-beta receptor type-1 (Homo sapiens), P36897 [T204D]; experiment: Inhibition of human TGFbetaR1 T204D mutant (200 to 501 residues) at 500 nM in presence of 33P-ATP by filter binding assay relative to control
[11] = molecular target: Serine/threonine-protein kinase PLK1 (Homo sapiens) (UniProt P53350); experiment: Inhibition of human PLK1 (1 to 603 residues) assessed as residual activity at 500 nM in presence of 33P-ATP by filter binding assay relative to control
[12] = molecular target: Mitogen-activated protein kinase 11 (Homo sapiens) (UniProt Q15759); experiment: Inhibition of human p38beta (1 to 364 residues) assessed as residual activity at 500 nM in presence of 33P-ATP by filter binding assay relative to control
[13] = molecular target: Serine/threonine-protein kinase PAK 5 (Homo sapiens) (UniProt Q9P286); experiment: Inhibition of human PAK5 (2 to 719 residues) assessed as residual activity at 500 nM in presence of 33P-ATP by filter binding assay relative to control
[14] = molecular target: TAK1/TAB1 (Homo sapiens) (UniProt Q15750+O43318); experiment: Inhibition of human TAK1 (1 to 303 residues)/TAB1 (437 to 504 residues) assessed as residual activity at 500 nM in presence of 33P-ATP by filter binding assay relative to control; assay type: protein-complex assay
[15] = molecular target: Mitogen-activated protein kinase 9 (Homo sapiens) (UniProt P45984); experiment: Inhibition of human JNK2 (1 to 424 residues) assessed as residual activity at 500 nM in presence of 33P-ATP by filter binding assay relative to control
[16] = molecular target: Eukaryotic translation initiation factor 2-alpha kinase 3 (Homo sapiens) (UniProt Q9NZJ5); experiment: Inhibition of human EIF2AK3 (536 to 1116 residues) assessed as residual activity at 500 nM in presence of 33P-ATP by filter binding assay relative to control
[17] = molecular target: Fibroblast growth factor receptor 1 (Homo sapiens) (UniProt P11362); experiment: Inhibition of human FGFR1 (400 to 820 residues) assessed as residual activity at 500 nM in presence of 33P-ATP by filter binding assay relative to control
[18] = molecular target: CDK2/Cyclin A2 (Homo sapiens) (UniProt P24941+P20248); experiment: Inhibition of human CDK2 (2 to 298 residues)/cyclinA2 (171 to 432 residues) assessed as residual activity at 500 nM in presence of 33P-ATP by filter binding assay relative to control; assay type: protein-complex assay
[19] = molecular target: Mitogen-activated protein kinase kinase kinase 1 (Homo sapiens) (UniProt Q13233); experiment: Inhibition of human MEKK1 (877 to 1563 residues) assessed as residual activity at 500 nM in presence of 33P-ATP by filter binding assay relative to control
[20] = molecular target: Mitogen-activated protein kinase 1 (Homo sapiens) (UniProt P28482); experiment: Inhibition of human ERK2 (2 to 360 residues) assessed as residual activity at 500 nM in presence of 33P-ATP by filter binding assay relative to control
[21] = molecular target: Dual specificity mitogen-activated protein kinase kinase 2 (Homo sapiens) (UniProt P36507); experiment: Inhibition of human MKK2 (2 to 400 residues) assessed as residual activity at 500 nM in presence of 33P-ATP by filter binding assay relative to control
[22] = molecular target: Insulin-like growth factor 1 receptor (Homo sapiens) (UniProt P08069); experiment: Inhibition of human IGF1R (954 to 1367 residues) assessed as residual activity at 500 nM in presence of 33P-ATP by filter binding assay relative to control
[23] = molecular target: Serine/threonine-protein kinase N2 (Homo sapiens) (UniProt Q16513); experiment: Inhibition of human PRK2 (501 to 984 residues) assessed as residual activity at 500 nM in presence of 33P-ATP by filter binding assay relative to control
[24] = molecular target: Protein kinase C gamma type (Homo sapiens) (UniProt P05129); experiment: Inhibition of human PKCgamma (1 to 697 residues) assessed as residual activity at 500 nM in presence of 33P-ATP by filter binding assay relative to control
[25] = molecular target: Serine/threonine-protein kinase pim-2 (Homo sapiens) (UniProt Q9P1W9); experiment: Inhibition of human PIM2 (2 to 334 residues) assessed as residual activity at 500 nM in presence of 33P-ATP by filter binding assay relative to control

Chain of Eukaryotic translation initiation factor 2-alpha kinase 3 (Homo sapiens) (Q9NZJ5 whole entry, the tested form may be a part): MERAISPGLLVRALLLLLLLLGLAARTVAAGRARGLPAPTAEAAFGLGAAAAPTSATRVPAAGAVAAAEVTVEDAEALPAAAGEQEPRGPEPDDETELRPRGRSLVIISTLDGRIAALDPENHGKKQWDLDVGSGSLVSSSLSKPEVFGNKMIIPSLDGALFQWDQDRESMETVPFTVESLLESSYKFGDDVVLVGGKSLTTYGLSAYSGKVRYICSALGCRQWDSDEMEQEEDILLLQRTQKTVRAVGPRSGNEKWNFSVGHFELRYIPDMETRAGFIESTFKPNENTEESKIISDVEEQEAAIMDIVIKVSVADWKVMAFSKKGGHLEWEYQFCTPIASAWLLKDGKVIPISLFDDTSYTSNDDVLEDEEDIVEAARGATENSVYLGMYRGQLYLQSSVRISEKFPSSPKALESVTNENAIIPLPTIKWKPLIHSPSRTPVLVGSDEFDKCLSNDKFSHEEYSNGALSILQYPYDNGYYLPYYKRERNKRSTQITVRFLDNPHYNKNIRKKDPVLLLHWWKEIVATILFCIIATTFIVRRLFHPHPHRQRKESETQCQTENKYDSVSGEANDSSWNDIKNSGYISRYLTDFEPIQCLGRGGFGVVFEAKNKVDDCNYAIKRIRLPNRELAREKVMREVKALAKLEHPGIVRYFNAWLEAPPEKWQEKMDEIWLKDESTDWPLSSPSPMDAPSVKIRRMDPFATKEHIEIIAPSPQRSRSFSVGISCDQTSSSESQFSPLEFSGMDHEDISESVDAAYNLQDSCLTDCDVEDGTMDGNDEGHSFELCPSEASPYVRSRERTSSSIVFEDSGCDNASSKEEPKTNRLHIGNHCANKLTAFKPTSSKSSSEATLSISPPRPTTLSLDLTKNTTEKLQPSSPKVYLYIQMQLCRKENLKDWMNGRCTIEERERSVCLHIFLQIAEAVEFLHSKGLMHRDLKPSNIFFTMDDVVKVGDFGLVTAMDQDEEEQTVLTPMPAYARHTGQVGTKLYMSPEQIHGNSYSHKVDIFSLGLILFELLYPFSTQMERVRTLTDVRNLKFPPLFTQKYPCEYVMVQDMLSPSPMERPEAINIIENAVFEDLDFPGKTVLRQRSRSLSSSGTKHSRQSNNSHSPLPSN
Chain of Tyrosine-protein kinase CSK (Homo sapiens) (P41240 2-450 limits assumed): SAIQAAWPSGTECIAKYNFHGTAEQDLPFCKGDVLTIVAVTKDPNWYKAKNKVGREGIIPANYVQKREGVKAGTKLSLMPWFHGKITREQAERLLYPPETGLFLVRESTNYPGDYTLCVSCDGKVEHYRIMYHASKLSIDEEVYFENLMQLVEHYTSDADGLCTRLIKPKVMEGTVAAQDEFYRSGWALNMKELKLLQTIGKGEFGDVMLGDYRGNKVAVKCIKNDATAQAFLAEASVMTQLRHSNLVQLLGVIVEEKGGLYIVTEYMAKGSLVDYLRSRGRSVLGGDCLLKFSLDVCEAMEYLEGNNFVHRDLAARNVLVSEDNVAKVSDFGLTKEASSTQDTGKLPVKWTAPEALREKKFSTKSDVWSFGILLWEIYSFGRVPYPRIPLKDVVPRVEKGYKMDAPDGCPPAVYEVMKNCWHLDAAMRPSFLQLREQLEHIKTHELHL
Chain of Mitogen-activated protein kinase kinase kinase 1 (Homo sapiens) (Q13233 whole entry, the tested form may be a part): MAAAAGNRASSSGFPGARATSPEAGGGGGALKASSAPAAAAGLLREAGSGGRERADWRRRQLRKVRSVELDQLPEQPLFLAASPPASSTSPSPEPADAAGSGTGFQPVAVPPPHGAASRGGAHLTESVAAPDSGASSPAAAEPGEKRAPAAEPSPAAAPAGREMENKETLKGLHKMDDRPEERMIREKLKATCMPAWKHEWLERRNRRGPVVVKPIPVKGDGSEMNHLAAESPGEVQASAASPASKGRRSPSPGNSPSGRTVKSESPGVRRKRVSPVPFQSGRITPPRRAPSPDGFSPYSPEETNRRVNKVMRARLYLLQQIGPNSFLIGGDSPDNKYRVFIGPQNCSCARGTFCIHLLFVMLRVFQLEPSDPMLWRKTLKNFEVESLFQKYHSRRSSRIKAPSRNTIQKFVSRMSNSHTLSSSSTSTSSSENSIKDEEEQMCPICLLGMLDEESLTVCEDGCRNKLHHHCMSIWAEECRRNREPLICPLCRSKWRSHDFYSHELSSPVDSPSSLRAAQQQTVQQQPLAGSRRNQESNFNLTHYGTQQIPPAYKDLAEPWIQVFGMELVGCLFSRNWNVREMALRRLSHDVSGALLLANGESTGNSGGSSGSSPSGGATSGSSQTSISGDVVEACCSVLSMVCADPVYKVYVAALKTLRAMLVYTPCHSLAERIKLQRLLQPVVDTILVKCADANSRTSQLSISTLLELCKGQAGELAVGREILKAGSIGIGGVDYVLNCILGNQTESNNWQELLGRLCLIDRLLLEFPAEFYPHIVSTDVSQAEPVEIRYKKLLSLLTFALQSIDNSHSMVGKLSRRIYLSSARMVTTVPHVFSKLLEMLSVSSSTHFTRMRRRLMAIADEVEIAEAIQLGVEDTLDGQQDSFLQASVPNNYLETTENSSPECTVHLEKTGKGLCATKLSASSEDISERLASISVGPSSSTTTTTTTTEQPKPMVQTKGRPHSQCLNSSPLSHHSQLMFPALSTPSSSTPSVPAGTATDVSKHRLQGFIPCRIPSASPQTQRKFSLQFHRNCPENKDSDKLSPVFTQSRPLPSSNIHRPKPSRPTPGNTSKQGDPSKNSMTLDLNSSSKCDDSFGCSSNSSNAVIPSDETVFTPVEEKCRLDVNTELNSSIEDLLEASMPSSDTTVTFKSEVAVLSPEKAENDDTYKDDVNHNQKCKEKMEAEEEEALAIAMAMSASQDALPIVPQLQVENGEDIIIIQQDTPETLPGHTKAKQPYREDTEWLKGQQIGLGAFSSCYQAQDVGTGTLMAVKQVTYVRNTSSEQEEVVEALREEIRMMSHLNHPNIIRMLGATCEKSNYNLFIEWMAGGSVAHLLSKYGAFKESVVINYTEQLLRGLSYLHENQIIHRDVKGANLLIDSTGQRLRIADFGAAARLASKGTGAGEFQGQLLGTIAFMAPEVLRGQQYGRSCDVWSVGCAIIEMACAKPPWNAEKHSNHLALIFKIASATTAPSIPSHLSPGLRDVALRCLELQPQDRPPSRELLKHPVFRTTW
Chain of Mitogen-activated protein kinase 9 (Homo sapiens) (P45984 whole entry, looked up, the tested form may be a part): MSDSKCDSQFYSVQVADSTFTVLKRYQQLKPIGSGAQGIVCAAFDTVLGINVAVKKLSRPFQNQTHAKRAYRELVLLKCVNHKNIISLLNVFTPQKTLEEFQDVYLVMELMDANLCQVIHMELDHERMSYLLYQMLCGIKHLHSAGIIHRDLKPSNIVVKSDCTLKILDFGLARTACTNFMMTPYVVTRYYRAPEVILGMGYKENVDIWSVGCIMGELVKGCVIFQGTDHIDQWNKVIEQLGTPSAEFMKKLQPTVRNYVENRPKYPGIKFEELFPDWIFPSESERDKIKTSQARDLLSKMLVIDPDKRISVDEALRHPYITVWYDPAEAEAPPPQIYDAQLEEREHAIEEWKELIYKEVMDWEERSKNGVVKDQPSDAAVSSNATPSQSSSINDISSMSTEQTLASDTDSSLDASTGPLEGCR
Chain of Mitogen-activated protein kinase 11 (Homo sapiens) (Q15759 whole entry, the tested form may be a part): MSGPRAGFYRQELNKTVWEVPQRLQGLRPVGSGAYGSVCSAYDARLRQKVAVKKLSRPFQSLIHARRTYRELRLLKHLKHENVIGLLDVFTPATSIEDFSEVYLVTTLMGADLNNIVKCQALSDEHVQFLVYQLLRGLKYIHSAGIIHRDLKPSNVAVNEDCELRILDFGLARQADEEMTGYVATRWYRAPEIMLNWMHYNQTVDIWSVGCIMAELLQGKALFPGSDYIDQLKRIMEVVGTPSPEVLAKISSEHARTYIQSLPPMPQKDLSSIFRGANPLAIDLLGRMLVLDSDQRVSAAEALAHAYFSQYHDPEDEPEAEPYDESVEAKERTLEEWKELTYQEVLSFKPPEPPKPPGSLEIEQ
Chain of Serine/threonine-protein kinase PLK1 (Homo sapiens) (P53350 whole entry, the tested form may be a part): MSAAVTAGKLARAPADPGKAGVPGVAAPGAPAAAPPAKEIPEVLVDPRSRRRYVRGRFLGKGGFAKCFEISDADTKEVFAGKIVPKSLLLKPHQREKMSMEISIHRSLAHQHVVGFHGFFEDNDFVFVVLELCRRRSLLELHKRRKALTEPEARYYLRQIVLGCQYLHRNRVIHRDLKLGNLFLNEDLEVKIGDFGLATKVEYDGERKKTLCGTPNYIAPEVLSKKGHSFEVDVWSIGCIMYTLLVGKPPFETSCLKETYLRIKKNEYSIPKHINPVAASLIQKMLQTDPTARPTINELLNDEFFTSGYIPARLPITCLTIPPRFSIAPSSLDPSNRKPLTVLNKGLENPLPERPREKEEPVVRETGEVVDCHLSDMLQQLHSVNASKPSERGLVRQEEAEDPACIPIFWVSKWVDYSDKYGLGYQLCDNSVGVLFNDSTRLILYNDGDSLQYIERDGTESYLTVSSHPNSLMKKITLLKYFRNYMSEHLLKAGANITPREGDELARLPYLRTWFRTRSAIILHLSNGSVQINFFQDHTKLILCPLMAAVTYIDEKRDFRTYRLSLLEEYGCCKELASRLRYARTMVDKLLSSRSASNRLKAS
Chain of Ribosomal protein S6 kinase beta-1 (Homo sapiens), P23443 [T412E] (P23443 whole entry T412E, looked up, the tested form may be a part): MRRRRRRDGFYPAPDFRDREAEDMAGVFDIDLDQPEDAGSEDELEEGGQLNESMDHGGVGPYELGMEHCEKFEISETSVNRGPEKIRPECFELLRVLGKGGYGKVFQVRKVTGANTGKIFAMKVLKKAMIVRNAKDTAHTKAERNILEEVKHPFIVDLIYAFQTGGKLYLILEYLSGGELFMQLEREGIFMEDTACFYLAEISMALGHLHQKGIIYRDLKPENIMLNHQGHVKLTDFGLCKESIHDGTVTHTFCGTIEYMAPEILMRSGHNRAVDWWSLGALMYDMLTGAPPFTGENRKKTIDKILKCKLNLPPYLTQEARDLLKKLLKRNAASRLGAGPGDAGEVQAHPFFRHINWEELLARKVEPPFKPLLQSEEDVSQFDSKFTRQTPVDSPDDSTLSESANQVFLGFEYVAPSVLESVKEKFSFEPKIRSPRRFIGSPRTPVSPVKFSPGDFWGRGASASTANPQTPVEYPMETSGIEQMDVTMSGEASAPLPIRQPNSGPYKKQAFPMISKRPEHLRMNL

Activity [1]: 99% | Activity [2]: 124% | Activity [3]: 74% | Activity [4]: 136% | Activity [5]: 119% | Activity [6]: 123% | Activity [7]: 60% | Activity [8]: 106% | inhibition [9]: 91% | inhibition [10]: 86% | Activity [11]: 107% | Activity [12]: 80% | Activity [13]: 107% | Activity [14]: 40% | Activity [15]: 79% | Activity [16]: 112% | Activity [17]: 85% | Activity [18]: 104% | Activity [19]: 119% | Activity [20]: 80% | Activity [21]: 112% | Activity [22]: 104% | Activity [23]: 121% | Activity [24]: 103% | Activity [25]: 101%
Compound: Cc1cccc(-c2nc(N)sc2-c2ccc3ncccc3n2)c1
